The numbers were not newly measured in patent US10894960B2, “Compositions and methods for nucleic acid transfer” (Children's Hospital Medical Center, priority 2016, dated 2021), which cites them from elsewhere.

The target in one data set is SUR1 (Homo sapiens, UniProt Q09428). The note with it: Target SUR1, gene symbol ABCC8.
The next data set addresses TOP2 beta (Homo sapiens, UniProt Q02880). The note with it: Target TOP2 beta, gene symbol TOP2B.
In the next data set the target is PARP-1 (Homo sapiens, UniProt P09874). To be noted: Target PARP-1, gene symbol PARP1.
The target of another data set is NR3A (Homo sapiens, UniProt Q8TCU5). The note with it: Target NR3A, gene symbol GRIN3A.
Sequence of NR3A (Q8TCU5 24-1115, species assumed, other chains not shown): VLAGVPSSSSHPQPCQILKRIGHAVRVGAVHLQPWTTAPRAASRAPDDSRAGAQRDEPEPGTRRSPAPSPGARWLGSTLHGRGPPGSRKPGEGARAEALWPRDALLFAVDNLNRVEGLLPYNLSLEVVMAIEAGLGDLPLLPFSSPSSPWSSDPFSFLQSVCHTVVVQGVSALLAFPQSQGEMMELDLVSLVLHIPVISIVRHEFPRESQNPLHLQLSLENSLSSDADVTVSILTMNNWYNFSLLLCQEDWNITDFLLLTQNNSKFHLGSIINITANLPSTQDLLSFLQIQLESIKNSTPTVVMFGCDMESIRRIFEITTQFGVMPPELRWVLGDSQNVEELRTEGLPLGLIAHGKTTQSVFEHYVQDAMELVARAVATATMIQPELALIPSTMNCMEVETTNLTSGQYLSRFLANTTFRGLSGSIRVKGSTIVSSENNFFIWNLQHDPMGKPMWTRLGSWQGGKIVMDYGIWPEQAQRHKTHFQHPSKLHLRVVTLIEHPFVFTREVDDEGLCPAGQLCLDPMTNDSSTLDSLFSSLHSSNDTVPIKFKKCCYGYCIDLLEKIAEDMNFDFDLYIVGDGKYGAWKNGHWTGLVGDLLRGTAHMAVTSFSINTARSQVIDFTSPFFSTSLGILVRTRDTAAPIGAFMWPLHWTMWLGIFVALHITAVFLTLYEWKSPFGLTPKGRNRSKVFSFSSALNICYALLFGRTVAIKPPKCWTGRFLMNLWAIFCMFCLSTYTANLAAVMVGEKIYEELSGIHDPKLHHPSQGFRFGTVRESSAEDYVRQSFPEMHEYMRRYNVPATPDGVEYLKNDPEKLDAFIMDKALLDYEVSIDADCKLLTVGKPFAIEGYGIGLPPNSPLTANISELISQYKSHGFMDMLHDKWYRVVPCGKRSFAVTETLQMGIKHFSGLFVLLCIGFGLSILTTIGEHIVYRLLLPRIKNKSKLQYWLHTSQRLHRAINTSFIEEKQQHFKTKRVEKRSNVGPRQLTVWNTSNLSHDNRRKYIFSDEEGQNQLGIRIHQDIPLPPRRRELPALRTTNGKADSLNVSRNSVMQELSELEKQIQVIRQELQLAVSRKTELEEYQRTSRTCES

Sequence of SUR1 (Q09428 whole entry, species assumed): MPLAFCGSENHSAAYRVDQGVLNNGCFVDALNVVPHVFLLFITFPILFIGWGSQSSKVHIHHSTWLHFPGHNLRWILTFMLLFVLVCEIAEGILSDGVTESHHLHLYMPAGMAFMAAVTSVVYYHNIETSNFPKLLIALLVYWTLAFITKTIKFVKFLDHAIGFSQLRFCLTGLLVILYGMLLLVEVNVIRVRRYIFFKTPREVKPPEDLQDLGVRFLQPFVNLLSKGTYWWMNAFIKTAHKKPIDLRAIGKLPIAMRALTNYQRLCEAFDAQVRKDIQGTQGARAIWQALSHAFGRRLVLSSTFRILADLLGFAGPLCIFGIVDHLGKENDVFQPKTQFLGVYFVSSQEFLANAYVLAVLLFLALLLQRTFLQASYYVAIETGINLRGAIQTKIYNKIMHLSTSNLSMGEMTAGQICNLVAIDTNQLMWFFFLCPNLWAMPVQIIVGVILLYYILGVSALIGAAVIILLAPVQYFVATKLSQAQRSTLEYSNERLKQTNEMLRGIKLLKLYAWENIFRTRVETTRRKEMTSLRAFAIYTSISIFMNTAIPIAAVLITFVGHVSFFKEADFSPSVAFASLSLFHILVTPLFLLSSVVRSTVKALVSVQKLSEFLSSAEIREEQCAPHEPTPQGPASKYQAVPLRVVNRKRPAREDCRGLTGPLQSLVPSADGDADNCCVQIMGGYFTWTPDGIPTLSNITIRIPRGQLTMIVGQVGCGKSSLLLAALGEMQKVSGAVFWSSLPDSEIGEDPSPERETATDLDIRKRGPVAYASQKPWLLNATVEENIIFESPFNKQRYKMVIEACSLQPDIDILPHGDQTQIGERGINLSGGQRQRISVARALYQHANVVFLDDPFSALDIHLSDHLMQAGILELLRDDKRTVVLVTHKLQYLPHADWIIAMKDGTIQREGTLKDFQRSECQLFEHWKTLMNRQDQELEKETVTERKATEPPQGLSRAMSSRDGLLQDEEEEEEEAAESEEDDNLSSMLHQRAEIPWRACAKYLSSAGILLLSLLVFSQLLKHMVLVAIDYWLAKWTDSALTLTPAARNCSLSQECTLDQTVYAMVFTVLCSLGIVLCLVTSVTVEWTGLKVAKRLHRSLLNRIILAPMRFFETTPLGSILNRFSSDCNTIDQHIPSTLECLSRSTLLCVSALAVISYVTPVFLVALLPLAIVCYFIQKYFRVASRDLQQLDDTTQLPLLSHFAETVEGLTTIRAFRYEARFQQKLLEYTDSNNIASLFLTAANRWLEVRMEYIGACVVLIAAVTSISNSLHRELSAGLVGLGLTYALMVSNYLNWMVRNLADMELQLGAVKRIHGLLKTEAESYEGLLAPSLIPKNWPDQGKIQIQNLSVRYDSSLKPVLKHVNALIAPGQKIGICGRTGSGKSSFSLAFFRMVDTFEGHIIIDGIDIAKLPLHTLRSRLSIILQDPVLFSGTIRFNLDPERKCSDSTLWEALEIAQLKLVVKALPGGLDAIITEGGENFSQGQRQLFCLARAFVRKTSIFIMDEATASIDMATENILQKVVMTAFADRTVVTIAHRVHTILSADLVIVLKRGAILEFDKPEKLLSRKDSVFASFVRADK
Sequence of SUR1 (Q14654 whole entry partner, species assumed): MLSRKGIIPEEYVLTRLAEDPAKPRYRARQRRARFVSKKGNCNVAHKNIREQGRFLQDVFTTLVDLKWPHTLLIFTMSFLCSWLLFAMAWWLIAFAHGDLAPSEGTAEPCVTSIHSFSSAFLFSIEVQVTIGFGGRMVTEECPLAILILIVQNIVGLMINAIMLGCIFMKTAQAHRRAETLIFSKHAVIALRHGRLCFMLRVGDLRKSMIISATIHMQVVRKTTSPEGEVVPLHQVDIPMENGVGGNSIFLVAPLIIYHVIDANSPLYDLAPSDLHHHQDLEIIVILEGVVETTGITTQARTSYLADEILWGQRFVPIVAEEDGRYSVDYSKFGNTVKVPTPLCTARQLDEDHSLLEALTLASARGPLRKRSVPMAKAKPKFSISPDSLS
Sequence of TOP2 beta (Q02880 whole entry): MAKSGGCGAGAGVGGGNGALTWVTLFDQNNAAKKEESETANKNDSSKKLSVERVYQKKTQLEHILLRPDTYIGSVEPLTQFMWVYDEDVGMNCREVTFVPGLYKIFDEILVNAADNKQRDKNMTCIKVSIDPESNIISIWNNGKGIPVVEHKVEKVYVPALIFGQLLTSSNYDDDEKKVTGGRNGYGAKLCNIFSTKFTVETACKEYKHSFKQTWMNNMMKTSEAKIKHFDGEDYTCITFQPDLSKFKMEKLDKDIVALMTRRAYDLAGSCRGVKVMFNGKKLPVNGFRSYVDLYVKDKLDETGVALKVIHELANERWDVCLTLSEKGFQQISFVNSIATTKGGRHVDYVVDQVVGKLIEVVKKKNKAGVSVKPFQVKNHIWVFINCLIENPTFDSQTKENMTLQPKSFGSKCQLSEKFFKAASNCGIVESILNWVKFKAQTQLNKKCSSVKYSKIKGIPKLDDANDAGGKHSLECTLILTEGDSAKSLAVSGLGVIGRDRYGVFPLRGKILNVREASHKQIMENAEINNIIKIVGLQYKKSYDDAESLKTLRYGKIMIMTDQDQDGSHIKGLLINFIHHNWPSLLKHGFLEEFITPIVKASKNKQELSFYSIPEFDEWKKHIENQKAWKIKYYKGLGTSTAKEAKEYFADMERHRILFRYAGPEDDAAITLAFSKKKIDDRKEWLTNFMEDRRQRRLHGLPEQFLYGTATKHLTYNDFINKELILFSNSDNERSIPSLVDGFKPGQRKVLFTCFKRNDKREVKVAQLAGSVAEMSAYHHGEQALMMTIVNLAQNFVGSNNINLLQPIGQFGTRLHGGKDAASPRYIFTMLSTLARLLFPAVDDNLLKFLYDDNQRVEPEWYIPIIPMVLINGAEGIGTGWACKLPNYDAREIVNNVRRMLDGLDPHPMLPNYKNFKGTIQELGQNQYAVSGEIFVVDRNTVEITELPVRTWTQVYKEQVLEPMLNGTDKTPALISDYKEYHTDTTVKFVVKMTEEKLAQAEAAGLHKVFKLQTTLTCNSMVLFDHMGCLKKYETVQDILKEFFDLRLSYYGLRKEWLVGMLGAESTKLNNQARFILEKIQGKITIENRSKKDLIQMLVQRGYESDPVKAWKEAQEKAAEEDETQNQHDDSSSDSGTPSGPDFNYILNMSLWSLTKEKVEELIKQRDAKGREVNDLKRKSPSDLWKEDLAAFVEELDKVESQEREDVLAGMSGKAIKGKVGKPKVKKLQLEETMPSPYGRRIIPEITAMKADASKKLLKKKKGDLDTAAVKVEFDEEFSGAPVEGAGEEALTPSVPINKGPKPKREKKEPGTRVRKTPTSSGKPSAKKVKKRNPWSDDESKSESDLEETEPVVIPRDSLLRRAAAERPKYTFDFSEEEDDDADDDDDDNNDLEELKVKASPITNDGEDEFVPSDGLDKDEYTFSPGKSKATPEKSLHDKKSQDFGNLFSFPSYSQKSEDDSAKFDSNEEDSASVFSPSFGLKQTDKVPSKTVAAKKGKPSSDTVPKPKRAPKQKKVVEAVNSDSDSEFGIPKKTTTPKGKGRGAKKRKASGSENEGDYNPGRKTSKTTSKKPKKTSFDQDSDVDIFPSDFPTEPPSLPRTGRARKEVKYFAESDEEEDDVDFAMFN

For the compound `CCOc1cc(CC(=O)N[C@@H](CC(C)C)c2ccccc2N2CCCCC2)ccc1C(=O)O` (racemic) [(R/S)-Repaglinide], on SUR1, the Effect result was “Inhibition”.

For the compound `CC(=O)c1ccc(S(=O)(=O)NC(=O)NC2CCCCC2)cc1` [Acetohexamide], the Effect entry on SUR1 was “Activation”.

As for `C[C@@H]1O[C@@H](O[C@H]2C[C@](O)(C(=O)CO)Cc3c(O)c4c(c(O)c32)C(=O)c2ccccc2C4=O)[C@H](I)[C@H](O)[C@H]1O` [Annamycin], the Effect result on TOP2 beta is “Inhibition”.

For `O=[As]O[As]=O` (stereo not shown) [As(,2)O(,3)], the Effect entry at PARP-1 is reported as “Inhibition”.

As for `CC1=NS(=O)(=O)c2cc(Cl)ccc2N1` [Diazoxide], the Effect result at SUR1 was “Activation”.

Take `CO[C@@H]1[C@@H](N)[C@@H](O[C@H]2[C@H](Oc3cccc4c(O)c5c(=O)oc6ccc(C)c7c(=O)oc(c34)c5c67)O[C@H](C)[C@H](O)[C@]2(C)O)O[C@H](C)[C@@H]1O` [Elsamitrucin]: the Effect entry at TOP2 beta was “Inhibition”.

Consider `O=C(Nc1ccc2ncccc2c1)C(=O)c1cn(Cc2ccc(Cl)cc2)c2ccccc12` [Entasobulin], for which the Effect entry at TOP2 beta is on record as “Inhibition”.

As for `COc1cc([C@@H]2c3cc4c(cc3[C@@H](O[C@@H]3O[C@@H]5CO[C@@H](C)O[C@H]5[C@H](O)[C@H]3O)[C@H]3COC(=O)[C@H]23)OCO4)cc(OC)c1O` [Etoposide], the Effect entry at TOP2 beta is given as “Inhibition”.

As for `CCC1=C(C)CN(C(=O)NCCc2ccc(S(=O)(=O)NC(=O)N[C@H]3CC[C@H](C)CC3)cc2)C1=O` [Glimepiride], at SUR1, the Effect entry is on record as “Inhibition”.

For the compound `Cc1cnc(NCCCN(C)C)c2c1[nH]c1ccc3cc(O)ccc3c12` [Intoplicine], the Effect result at TOP2 beta was “Inhibition”.

Take `CNC1(c2ccccc2Cl)CCCCC1=O` (stereo not shown) [Ketamine]: the Effect result on NR3A was “Inhibition”.

As to `CC12CC3CC(C)(C1)CC(N)(C3)C2` [Memantine], the Effect result on NR3A is recorded as “Inhibition”.

As for `COc1ccc2c(c[n+](C)c3c4cc5c(cc4ccc23)OCO5)c1O` [NK109], at TOP2 beta, the Effect entry was “Inhibition”.

As to `COc1cc([C@@H]2c3cc4c(cc3[C@@H](CCN(C)CCN(C)C)[C@H]3COC(=O)[C@H]23)OCO4)cc(OC)c1O` [TOP53], the Effect entry on TOP2 beta is given as “Inhibition”.

For the compound `C1CCC2(C1)C1CN(CC3CC3)CC2CN(CC2CC2)C1` [Tedisamil], the Effect result at SUR1 was “Inhibition”.

Turning to `COc1cc([C@@H]2c3cc4c(cc3[C@@H](O[C@@H]3O[C@@H]5CO[C@@H](c6cccs6)O[C@H]5[C@H](O)[C@H]3O)[C@H]3COC(=O)[C@H]23)OCO4)cc(OC)c1O` [Teniposide], the Effect entry on TOP2 beta is “Inhibition”.
